Test results reported in patent US12458643B2, “Antidepressant/anxiolytic drug in which PAC1 receptor antagonist is used” (KAGOSHIMA UNIVERSITY, priority 2020, dated 2025).

Columns and labels:
normal mice [1] = experiment: Y maze test in normal mice; assay type: in vivo, mouse; conditions: 30 mg/kg i.p., 60 minutes after
Protocol: A vehicle (10% DMSO solution; dissolved in saline; n=11) or PA-915 (30 mg/kg; n=10) was intraperitoneally administered (0.1 mL/10 g) to male C57BL/6J mice (8 to 12 weeks old). After a lapse of 60 minutes after administration, the mice were allowed to explore the Y maze for 5 minutes in a laboratory (illuminance: 20 lx). The data was indicated by mean±standard error.

normal mice [2] = experiment: Novel object recognition test in normal mice; assay type: in vivo, mouse; conditions: 30 mg/kg i.p., 60 minutes later
Protocol: Male C57BL/6J mice (8 weeks old) were acclimatized to the test box by exploration at 10 min/day for 3 days. On the fourth day, two objects differing in shape were placed in the test box, and the mice were allowed to freely explore the test box for 10 minutes (training trial). 23 hours after the completion of exploration, a vehicle (10% DMSO solution; dissolved in saline; n=10) or PA-915 (30 mg/kg; n=10) was intraperitoneally administered thereto (0.1 mL/10 g). 60 minutes later, one of the two objects was changed to a novel object, and the mice were allowed to explore the test box for 5 minutes (retention trial). Novel and known object exploration times were measured. The results are shown in FIGS. 36B and 36C (B: discrimination index, C: novel object exploration ratio). The data was indicated by mean±standard error.

O=C(NCCc1c[nH]cn1)C1CC(=O)N(c2n[nH]c3c(Cl)cccc23)C1 (centres unmarked) [PA-915, N-[2-(1H-imidazol-4-yl)ethyl]-1-(7-chloro-1H-indazol-3-yl)-5-oxo-3-pyrrolidinecarboxamide]
influence on cognitive function (Y maze test) (normal mice [1]): had no influence on the cognitive function | influence on cognitive function (novel object recognition test) (normal mice [2]): had no influence on the cognitive function
